Laboratory results as given in PMC8217813, “Bridging Computational Vaccinology and Vaccine Development Through Systematic Identification, Characterization, and Downselection of Conserved and Variable Circumsporozoite Protein CD4 T Cell Epitopes From Diverse Plasmodium falciparum Strains” (Frontiers in Immunology, 2021).
Peptide text beside a SMILES is read from it.

Assays:
[1] = tested on: CD4 T cells co-cultured with autologous DCs from PBMCs; assay type: cell-based, human; conditions: positive = Stimulation Index ≥1.5-fold above baseline, 5 µg/mL peptide
HLA-DRB1*0701 = HLA-DRB1*0701 (Homo sapiens, UniProt P01903+P01911, A100R/A102G/A103Q/D57E/D86V/E43K/F76Y/K127E/L162R/M171V/P40G/Q125H/Q99D/R33Q/R42Y/R54Q/S133A/S66F/T210M/V115G/Y107V/Y59L/Y89S); test: In vitro class II HLA binding competition assay
Protocol: (§1) EpiVax conducted in vitro quantification of peptide-HLA binding affinity utilizing a competition assay format per the methodology described in ([35]). Briefly, a fluorescent-labeled, high-binding reference peptide and titrating concentrations of test peptide were incubated in a 96-well plate format with limiting concentrations of class II HLA monomers in aqueous buffer for 24-hours. Post incubation, the mixtures were moved to a 96-well plate coated with anti-HLA-DR antibody to capture HLA-peptide complexes. Time-resolved fluorescence measurement of the bound labeled reference peptide complex present in each mixture were detected with a europium-linked probe via fluorescent spectrophotometry using a SpectraMax M5 system. HLA binding affinity of each test peptide was expressed as the percent inhibition of reference peptide binding. Percent inhibition values (across the test peptide titration range) were used to calculate the half maximal inhibitory concentration (IC50) of each test peptide. For these studies, test peptides were assessed using a range of final concentrations from 100,000 nM to 100 nM and all peptides were reconstituted in dimethyl sulfoxide (DMSO).

HLA-DRB1*0401 = biological target: T1, HLA-DRB1*0401 (Homo sapiens, UniProt P01903+P01911, A100K/A169T/F76Y/I96L/K127E/L162R/M171V/N62H/P40V/Q125Y/R42H/S133A/S149N/S66Y/V115G/V209L/W38E); test: In vitro class II HLA binding competition assay
T1 construct: purchased
Protocol: as §1

HLA-DRB1*0101 = biological target: T2, HLA-DRB1*0101 (Homo sapiens, UniProt P01903+P01911, A100R/D57E/F55L/F60I/F76Y/I96L/L162R/M171V/P40L/Q125E/R42F/V115G/Y59C); test: In vitro class II HLA binding competition assay; conditions: competition with fluorescent-labeled reference peptide, class II HLA monomers, 24-hours, test peptide 100,000 nM to 100 nM, time-resolved fluorescence
T2 construct: purchased
Protocol: as §1

HLA-DRB1*1301 = HLA-DRB1*1301 (Homo sapiens, UniProt P01903+P01911, A100E/A169T/K41T/L162R/M171V/P40S/Q125H/Q178H/Q39Y/Q99D/R42S/S66N/T262R/W38E/Y61H); test: In vitro class II HLA binding competition assay; conditions: competition with fluorescent-labeled reference peptide, class II HLA monomers, 24-hours, test peptide 100,000 nM to 100 nM, time-resolved fluorescence
Protocol: as §1

HLA-DRB1*0801 = HLA-DRB1*0801 (Homo sapiens, UniProt P01903+P01911, A100R/A103L/A169T/D86S/F76Y/H45Y/I96F/K41T/L162R/M171V/P40S/Q125H/Q178H/Q39Y/Q99D/R218S/R42G/S66Y/V115G/W38E); test: In vitro class II HLA binding competition assay; conditions: competition with fluorescent-labeled reference peptide, class II HLA monomers, 24-hours, test peptide 100,000 nM to 100 nM, time-resolved fluorescence
Protocol: as §1

HLA-DRB1*1501 = biological target: T3, HLA-DRB1*1501 (Homo sapiens, UniProt P01903+P01911); test: In vitro class II HLA binding competition assay
T3 construct: purchased
Protocol: as §1

HLA-DRB1*1101 = biological target: T4, HLA-DRB1*1101 (Homo sapiens, UniProt P01903+P01911, A100R/A169T/A87E/I96F/K41T/L162R/M171V/P40S/Q125H/Q178H/Q39Y/Q99D/R42S/S66Y/T262R/V115G/W38E); test: In vitro class II HLA binding competition assay; conditions: competition with fluorescent-labeled reference peptide, class II HLA monomers, 24-hours, test peptide 100,000 nM to 100 nM, time-resolved fluorescence
T4 construct: purchased
Protocol: as §1

HLA A*2402 = biological target: T5, HLA A*2402 (Homo sapiens, UniProt P04439, D101N/D140Y/D185E/E176V/E190D/F33S/G103R/G107R/I119L/I121M/I306V/K335N/L105A/L180Q/L300P/N151K/N90K/Q86E/Q94H/R106L/R138H/R89G/T104I/T345S/V100E/W191G/Y123F); test: In vitro class I HLA binding competition assay (fluorescence polarization); conditions: allele A2402; cell-free competition with fluorescently labeled control peptide, fluorescence polarization at 72 hours
T5 construct: Pure Protein, LLC (ran the assay)
Protocol: The cell-free class I HLA binding assay in use at Pure Protein, LLC allows for in vitro quantification of peptide-HLA binding affinity in a competition format. In this assay, a fluorescently labeled, high binding, control peptide is loaded onto 384-well ½-area plates along with unlabeled experimental peptides. To remove endogenous peptides and render the HLA A and B molecules receptive to binding, HLA is heated at 53°C for 15 minutes and immediately added to the assay. The mixture is then allowed to stand for three days. […] Binding of experimental peptides is expressed as the percent inhibition of the labeled control peptide (experimental fluorescence / control fluorescence, multiplied by 100). The percent inhibition values for each experimental peptide (across a range of molar concentrations) are used to calculate the concentration which inhibits 50% of the labeled control peptide’s specific binding. This value is referred to as the peptide’s IC50.

HLA B*4402 = HLA B*4402 (Homo sapiens, UniProt P01889, A223V/A65T/A93T/A95T/D201E/D98Y/E176V/E187L/E204Q/E69K/G107R/H137Y/K202T/L105A/L119I/N104T/N87E/Q56L/Q94N/R106L/R155S/R180D/S101N/S121R/S35A/S48T/T118I/V36M/W191S/Y140D/Y91S); test: as above; conditions: allele B4402; cell-free competition with fluorescently labeled control peptide, fluorescence polarization at 72 hours
Protocol: The cell-free class I HLA binding assay in use at Pure Protein, LLC allows for in vitro quantification of peptide-HLA binding affinity in a competition format. In this assay, a fluorescently labeled, high binding, control peptide is loaded onto 384-well ½-area plates along with unlabeled experimental peptides. To remove endogenous peptides and render the HLA A and B molecules receptive to binding, HLA is heated at 53°C for 15 minutes and immediately added to the assay. The mixture is then allowed to stand for three days. Once the mixture has reached steady equilibrium (at 72 hours), displacement of the high binding control peptide is measured through Fluorescence Polarization. Binding of experimental peptides is expressed as the percent inhibition of the labeled control peptide (experimental fluorescence / control fluorescence, multiplied by 100). The percent inhibition values for each experimental peptide (across a range of molar concentrations) are used to calculate the concentration which inhibits 50% of the labeled control peptide’s specific binding. This value is referred to as the peptide’s IC50.

CC[C@H](C)[C@H](NC(C)=O)C(=O)N[C@H](C(=O)N[C@@H](CCC(=O)O)C(=O)N[C@@H](Cc1ccc(O)cc1)C(=O)N[C@@H](CC(C)C)C(=O)N[C@@H](CCCCN)C(=O)N[C@@H](CCCCN)C(=O)N[C@H](C(=O)N[C@@H](CCC(N)=O)C(=O)N[C@@H](CC(N)=O)C(=O)N[C@@H](CO)C(=O)N[C@@H](CC(C)C)C(=O)N[C@@H](CO)C(=O)N[C@H](C(=O)N[C@@H](CCC(=O)O)C(=O)N[C@@H](Cc1c[nH]c2ccccc12)C(=O)N[C@@H](CO)C(=O)N1CCC[C@H]1C(=O)N[C@@H](CS)C(=O)N[C@@H](CO)C(N)=O)[C@@H](C)O)[C@@H](C)CC)[C@@H](C)O [ICS2] (Ac-ITEYLKKIQNSLSTEWSPCS-NH2)
Percentage of donors demonstrating IFN-γ responses, DR1 ([1]; DR1 donors N=5, ICCS after 14-day co-culture): 40%
Percentage of donors demonstrating IL-2 responses, DR1 ([1]; DR1 donors N=5, ICCS): 40%
Percentage of donors demonstrating IL-4 responses, DR1 ([1]; DR1 donors N=5, ICCS): 0%
Percentage of donors demonstrating IL-10 responses, DR1 ([1]; DR1 donors N=5, ICCS): 0%
Percentage of donors demonstrating TNF-α responses, DR1 ([1]; DR1 donors N=5, ICCS): 40%
Percentage of donors demonstrating IFN-γ responses, DR3 ([1]; DR3 donors N=6, ICCS after 14-day co-culture): 33%
Percentage of donors demonstrating IL-2 responses, DR3 ([1]; DR3 donors N=6, ICCS): 33%
Percentage of donors demonstrating IL-4 responses, DR3 ([1]; DR3 donors N=6, ICCS): 33%
Percentage of donors demonstrating IL-10 responses, DR3 ([1]; DR3 donors N=6, ICCS): 33%
Percentage of donors demonstrating TNF-α responses, DR3 ([1]; DR3 donors N=6, ICCS): 17%
Percentage of donors demonstrating IFN-γ responses, DR4 ([1]; DR4 donors N=10, ICCS after 14-day co-culture): 40%
Percentage of donors demonstrating IL-2 responses, DR4 ([1]; DR4 donors N=10, ICCS): 20%
Percentage of donors demonstrating IL-4 responses, DR4 ([1]; DR4 donors N=10, ICCS): 10%
Percentage of donors demonstrating IL-10 responses, DR4 ([1]; DR4 donors N=10, ICCS): 0%
Percentage of donors demonstrating TNF-α responses, DR4 ([1]; DR4 donors N=10, ICCS): 50%
Percentage of donors demonstrating IFN-γ responses, DR7 ([1]; DR7 donors N=4, ICCS after 14-day co-culture): 50%
Percentage of donors demonstrating IL-2 responses, DR7 ([1]; DR7 donors N=4, ICCS): 0%
Percentage of donors demonstrating IL-4 responses, DR7 ([1]; DR7 donors N=4, ICCS): 0%
Percentage of donors demonstrating IL-10 responses, DR7 ([1]; DR7 donors N=4, ICCS): 0%
Percentage of donors demonstrating TNF-α responses, DR7 ([1]; DR7 donors N=4, ICCS): 25%
Percentage of donors demonstrating IFN-γ responses, DR8 ([1]; DR8 donors N=4, ICCS after 14-day co-culture): 50%
Percentage of donors demonstrating IL-2 responses, DR8 ([1]; DR8 donors N=4, ICCS): 25%
Percentage of donors demonstrating IL-4 responses, DR8 ([1]; DR8 donors N=4, ICCS): 0%
Percentage of donors demonstrating IL-10 responses, DR8 ([1]; DR8 donors N=4, ICCS): 25%
Percentage of donors demonstrating TNF-α responses, DR8 ([1]; DR8 donors N=4, ICCS): 50%
Percentage of donors demonstrating IFN-γ responses, DR9 ([1]; DR9 donors N=4, ICCS after 14-day co-culture): 0%
Percentage of donors demonstrating IL-2 responses, DR9 ([1]; DR9 donors N=4, ICCS): 25%
Percentage of donors demonstrating IL-4 responses, DR9 ([1]; DR9 donors N=4, ICCS): 0%
Percentage of donors demonstrating IL-10 responses, DR9 ([1]; DR9 donors N=4, ICCS): 0%
Percentage of donors demonstrating TNF-α responses, DR9 ([1]; DR9 donors N=4, ICCS): 25%
Percentage of donors demonstrating IFN-γ responses, DR11 ([1]; DR11 donors N=4, ICCS after 14-day co-culture): 25%
Percentage of donors demonstrating IL-2 responses, DR11 ([1]; DR11 donors N=4, ICCS): 25%
Percentage of donors demonstrating IL-4 responses, DR11 ([1]; DR11 donors N=4, ICCS): 0%
Percentage of donors demonstrating IL-10 responses, DR11 ([1]; DR11 donors N=4, ICCS): 0%
Percentage of donors demonstrating TNF-α responses, DR11 ([1]; DR11 donors N=4, ICCS): 50%
Percentage of donors demonstrating IFN-γ responses, DR13 ([1]; DR13 donors N=7, ICCS after 14-day co-culture): 57%
Percentage of donors demonstrating IL-2 responses, DR13 ([1]; DR13 donors N=7, ICCS): 29%
Percentage of donors demonstrating IL-4 responses, DR13 ([1]; DR13 donors N=7, ICCS): 14%
Percentage of donors demonstrating IL-10 responses, DR13 ([1]; DR13 donors N=7, ICCS): 29%
Percentage of donors demonstrating TNF-α responses, DR13 ([1]; DR13 donors N=7, ICCS): 71%
Percentage of donors demonstrating IFN-γ responses, DR15 ([1]; DR15 donors N=7, ICCS after 14-day co-culture): 43%
Percentage of donors demonstrating IL-2 responses, DR15 ([1]; DR15 donors N=7, ICCS): 14%
Percentage of donors demonstrating IL-4 responses, DR15 ([1]; DR15 donors N=7, ICCS): 0%
Percentage of donors demonstrating IL-10 responses, DR15 ([1]; DR15 donors N=7, ICCS): 14%
Percentage of donors demonstrating TNF-α responses, DR15 ([1]; DR15 donors N=7, ICCS): 29%
IC50 (HLA-DRB1*0701): 20 µM
IC50 (HLA-DRB1*0401): 0.377 µM
IC50 (HLA-DRB1*0101): 83.9 µM
IC50 (HLA-DRB1*1301): 73.2 µM
IC50 (HLA-DRB1*0801): 4.76 µM
IC50 (HLA-DRB1*1501): 8.47 µM
IC50 (HLA-DRB1*1101): 43.7 µM

CC[C@H](C)[C@H](N)C(=O)N[C@@H](CCC(N)=O)C(=O)N[C@@H](CC(N)=O)C(=O)N[C@@H](CO)C(=O)N[C@@H](CC(C)C)C(=O)N[C@@H](CO)C(=O)N[C@H](C(=O)N[C@@H](CCC(=O)O)C(=O)N[C@@H](Cc1c[nH]c2ccccc12)C(=O)O)[C@@H](C)O [Cluster 323_3D7] (H-IQNSLSTEW-OH)
IC50 (HLA A*2402): 21.3 µM
IC50 (HLA B*4402): 136 µM
